Test results: US20250215039A1, “NUCLEOSIDES FOR TREATING CANCER” (PRIMEFOUR THERAPEUTICS, INC., priority 2022, published 2025)
Where two headings read alike, the source gives them in different places.

System: cancer cell lines
Test: Cancer cell proliferation activity (CellTiterGlo, 72 h)
Type: cell-based
Details: 72 h, 72 h, read-out: IC50 cell proliferation
In short: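 Cells seeded overnight at 37 °C, then dosed with compound at 0.1% final DMSO and incubated 72 h at 37 °C (5% or 10% CO2 by medium).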

Q: How did the IC50 (5637 (bladder)) turn out when `Nc1nc(F)nc2c1ncn2[C@@H]1O[C@H](CO)[C@@H](O)[C@@H]1O` [compound 170, (2R,3S,4S,5R)-2-(6-amino-2-fluoro-9H-purin-9-yl)-5-(hydroxymethyl)tetrahydrofuran-3,4-diol] was run?
A: 2.4 µM

Q: And the IC50 (CLS439 (bladder))?
A: 45.5 µM

Q: What about the IC50 (HS729 (muscle)) of the same compound?
A: 3.52 µM

Q: What about the IC50 (J82 (bladder)) of the same compound?
A: 19.4 µM

Q: And the IC50 (JAR (placenta))?
A: 45.9 µM

Q: And the IC50 (MT3 (breast))?
A: 2 µM

Q: And the IC50 (PANCI (pancreas))?
A: 16.6 µM

Q: And the IC50 (PC3 (prostate))?
A: 2.54 µM

Q: And the IC50 (RD (muscle))?
A: 11.9 µM

Q: What about the IC50 (T24 (bladder)) of the same compound?
A: 5.89 µM

Q: What about the IC50 (Homo sapiens, 22Rv1, 72 h, 22RV1 (prostate)) of the same compound?
A: 79.5 µM

Q: What about the IC50 (Homo sapiens, 786-0, 72 h, 786O (kidney)) of the same compound?
A: 29.6 µM

Q: And the IC50 (Homo sapiens, A204, 72 h, A204 (muscle))?
A: 0.53 µM

Q: What about the IC50 (Homo sapiens, A549, 72 h, A549 (lung)) of the same compound?
A: 8.86 µM

Q: What about the IC50 (Homo sapiens, A673, 72 h, A673 (bone)) of the same compound?
A: 10.8 µM

Q: And the IC50 (Homo sapiens, A2780, 72 h, A2780 (ovary))?
A: 7.16 µM

Q: What about the IC50 (Homo sapiens, A-375, 72 h, A375 (skin)) of the same compound?
A: 9.75 µM

Q: What about the IC50 (Homo sapiens, A-431, 72 h, A431 (skin)) of the same compound?
A: 11.1 µM

Q: And the IC50 (Homo sapiens, ACHN, ACHN (kidney))?
A: 12.7 µM

Q: And the IC50 (Homo sapiens, ASPC1, 72 h, ASPC1 (pancreas))?
A: 7.85 µM

Q: What about the IC50 (Homo sapiens, BT-20, 72 h, BT20 (breast)) of the same compound?
A: 38.2 µM

Q: And the IC50 (Homo sapiens, BXPC-3, 72 h, BXPC3 (pancreas))?
A: 6.87 µM

Q: And the IC50 (Homo sapiens, C-33-A, C33A (endometrial))?
A: 9.56 µM

Q: What about the IC50 (Homo sapiens, CAKI-1, 72 h, CAKI1 (kidney)) of the same compound?
A: 2.46 µM

Q: And the IC50 (Homo sapiens, COLO 205, 72 h, COLO205 (colon))?
A: 2.8 µM

Q: And the IC50 (Homo sapiens, COLO-678, 72 h, COLO678 (colon))?
A: 21.8 µM

Q: And the IC50 (Homo sapiens, Ca-Ski, CASKI (endometrial))?
A: 107 µM

Q: What about the IC50 (Homo sapiens, Caco-2, 72 h, CACO2 (colon)) of the same compound?
A: 49.2 µM

Q: What about the IC50 (Homo sapiens, Calu-6, 72 h, CALU6 (lung)) of the same compound?
A: 17.3 µM

Q: And the IC50 (Homo sapiens, DLD-1, 72 h, DLD1 (colon))?
A: 11.4 µM

Q: And the IC50 (Homo sapiens, DU-145, 72 h, DU145 (prostate))?
A: 5.44 µM

Q: What about the IC50 (Homo sapiens, EFO-21, 72 h, EFO21 (ovary)) of the same compound?
A: 7.34 µM

Q: And the IC50 (Homo sapiens, EJ-28, 72 h, EJ28 (bladder))?
A: 10.4 µM

Q: And the IC50 (Homo sapiens, Granta-519, 72 h, GRANTA-519 (hematological))?
A: 1.66 µM

Q: And the IC50 (Homo sapiens, HCT-15, 72 h, HCT15 (colon))?
A: 12.4 µM

Q: And the IC50 (Homo sapiens, HCT-116, 72 h, HCT116 (colon))?
A: 5.26 µM

Q: And the IC50 (Homo sapiens, HEK293, 72 h, HEK293 (kidney))?
A: 35.2 µM

Q: What about the IC50 (Homo sapiens, HL-60, 72 h, HL-60 (hematological)) of the same compound?
A: 2.05 µM

Q: And the IC50 (Homo sapiens, HT-29, 72 h, HT29 (colon))?
A: 18.4 µM

Q: What about the IC50 (Homo sapiens, HT-1080, 72 h, HT1080 (connective tissue)) of the same compound?
A: 4.09 µM

Q: What about the IC50 (Homo sapiens, HeLa, HELA (endometrial)) of the same compound?
A: 6.72 µM

Q: What about the IC50 (Homo sapiens, HepG2, 72 h, HEPG2 (liver)) of the same compound?
A: 15.3 µM

Q: And the IC50 (Homo sapiens, Hs-578T, HS578T (breast))?
A: 36.6 µM

Q: And the IC50 (Homo sapiens, IGROV-1, 72 h, IGROV1 (ovary))?
A: 13.6 µM

Q: What about the IC50 (Homo sapiens, IMR-90, 72 h, IMR90 (lung)) of the same compound?
A: 11.8 µM

Q: What about the IC50 (Homo sapiens, JEG-3, 72 h, JEG3 (placenta)) of the same compound?
A: 56.8 µM

Q: And the IC50 (Homo sapiens, JIMT-1, 72 h, JIMT1 (breast))?
A: 1.66 µM

Q: And the IC50 (Homo sapiens, K562, 72 h, K-562 (hematological))?
A: 41.8 µM

Q: And the IC50 (Homo sapiens, Kasumi 1, 72 h, KASUMI-1 (hematological))?
A: 0.55 µM

Q: What about the IC50 (Homo sapiens, L-363, 72 h, L-363 (hematological)) of the same compound?
A: 33 µM

Q: What about the IC50 (Homo sapiens, LoVo, LOVO (colon)) of the same compound?
A: 9.73 µM

Q: And the IC50 (Homo sapiens, MCF7, 72 h, MCF7 (breast))?
A: 27.2 µM

Q: And the IC50 (Homo sapiens, MDA-MB-231, 72 h, MDAMB231 (breast))?
A: 2.88 µM

Q: What about the IC50 (Homo sapiens, MDA-MB-435, 72 h, MDAMB435 (skin)) of the same compound?
A: 14.2 µM

Q: And the IC50 (Homo sapiens, MDA-MB-436, 72 h, MDAMB436 (breast))?
A: 3.35 µM

Q: And the IC50 (Homo sapiens, MDA-MB-468, 72 h, MDAMB468 (breast))?
A: 23.6 µM

Q: What about the IC50 (Homo sapiens, MG-63, 72 h, MG63 (bone)) of the same compound?
A: 15.5 µM

Q: What about the IC50 (Homo sapiens, MHH-ES-1, 72 h, MHHES1 (bone)) of the same compound?
A: 5.05 µM

Q: And the IC50 (Homo sapiens, MIA PaCa-2, 72 h, MIAPACA2 (pancreas))?
A: 35.4 µM

Q: And the IC50 (Homo sapiens, MINO, MINO (hematological))?
A: 0.61 µM

Q: And the IC50 (Homo sapiens, MV4-11, 72 h, MV4-11 (hematological))?
A: 5.77 µM

Q: And the IC50 (Homo sapiens, NCI-H23, 72 h, NCI-H23 (lung))?
A: 8.19 µM

Q: What about the IC50 (Homo sapiens, NCI-H82, 72 h, NCIH82 (lung)) of the same compound?
A: 21.3 µM

Q: What about the IC50 (Homo sapiens, NCI-H292, 72 h, NCIH292 (lung)) of the same compound?
A: 8.01 µM

Q: What about the IC50 (Homo sapiens, NCI-H460, 72 h, NCIH460 (lung)) of the same compound?
A: 32.5 µM

Q: And the IC50 (Homo sapiens, OVCAR-3, 72 h, OVCAR3 (ovary))?
A: 1.13 µM

Q: What about the IC50 (Homo sapiens, OVCAR-4, 72 h, OVCAR4 (ovary)) of the same compound?
A: 16.3 µM

Q: What about the IC50 (Homo sapiens, PLC-PRF-5, 72 h, PLCPRF5 (liver)) of the same compound?
A: 20.1 µM

Q: What about the IC50 (Homo sapiens, Panc1005, 72 h, PANC1005 (pancreas)) of the same compound?
A: 5.7 µM

Q: What about the IC50 (Homo sapiens, Ramos, RAMOS (hematological)) of the same compound?
A: 5.1 µM

Q: And the IC50 (Homo sapiens, SAOS-2, 72 h, SAOS2 (bone))?
A: 0.45 µM

Q: And the IC50 (Homo sapiens, SF-268, 72 h, SF268 (brain))?
A: 16.3 µM

Q: What about the IC50 (Homo sapiens, SF-295, 72 h, SF295 (brain)) of the same compound?
A: 86.5 µM

Q: And the IC50 (Homo sapiens, SK-BR-3, 72 h, SKBR3 (breast))?
A: 1.58 µM

Q: And the IC50 (Homo sapiens, SK-HEP1, 72 h, SKHEP1 (liver))?
A: 5.36 µM

Q: And the IC50 (Homo sapiens, SK-LMS-1, 72 h, SKLMS1 (uterus))?
A: 44.3 µM

Q: What about the IC50 (Homo sapiens, SK-MEL-5, 72 h, SKMEL5 (skin; SKMELS [sic] in Table 9E)) of the same compound?
A: 15.9 µM

Q: And the IC50 (Homo sapiens, SK-MEL-28, 72 h, SKMEL28 (skin))?
A: 11.1 µM

Q: And the IC50 (Homo sapiens, SK-N-AS, SKNAS (brain))?
A: 29.5 µM

Q: And the IC50 (Homo sapiens, SK-N-SH, SKNSH (brain))?
A: 22.2 µM

Q: What about the IC50 (Homo sapiens, SK-OV-3, 72 h, SKOV3 (ovary)) of the same compound?
A: 4.22 µM

Q: What about the IC50 (Homo sapiens, SNB-75, 72 h, SNB75 (brain)) of the same compound?
A: 50.6 µM

Q: What about the IC50 (Homo sapiens, SU-DHL10, 72 h, SU-DHL-10 (hematological)) of the same compound?
A: 5.61 µM

Q: What about the IC50 (Homo sapiens, SU-DHL-6, 72 h, SU-DHL-6 (hematological)) of the same compound?
A: 38.6 µM

Q: And the IC50 (Homo sapiens, SW-620, 72 h, SW620 (colon))?
A: 17.4 µM

Q: What about the IC50 (Homo sapiens, TE-671, 72 h, TE671 (muscle)) of the same compound?
A: 11.1 µM

Q: And the IC50 (Homo sapiens, THP-1, 72 h, THP-1 (hematological))?
A: 5.86 µM

Q: And the IC50 (Homo sapiens, U2OS, U20S (bone; U2OS in Table 9E))?
A: 13.8 µM

Q: What about the IC50 (Homo sapiens, U-87 MG, U87MG (brain)) of the same compound?
A: 5.59 µM

Q: What about the IC50 (Homo sapiens, UMUC3, 72 h, UMUC3 (bladder)) of the same compound?
A: 21.6 µM

Q: And the IC50 (Homo sapiens, UO-31, 72 h, UO31 (kidney))?
A: 7.43 µM

Q: What about the IC50 (Homo sapiens, WSU-NHL, WSU-NHL (hematological)) of the same compound?
A: 1.91 µM

Q: And the IC50 (NCI-H358M, NCIH358M (lung))?
A: 0.29 µM

Q: What about the IC50 (PBMC, PBMC (hematological)) of the same compound?
A: 0.29 µM

Q: What about the IC50 (RD-ES, RDES (bone)) of the same compound?
A: 35.3 µM
